Like-named read-outs stand apart in the source and are kept apart here.
Experiments:
[1] = tested on: Lung cells (A549); format: cell-based, Human
[2] = tested on: Immune cells (THP-1); format: cell-based, Human

CCN(CCO)CCCC(C)Nc1ccnc2cc(Cl)ccc12 (centres unmarked) [Hydroxychloroquine sulphate]
Inhibition of IL-6 ([1]; 0.1 µM): 34.7%
Inhibition of IL-8 ([1]; 0.1 µM): 54.4%
Inhibition of IL-6 ([1]; 1 µM): 53.4%
Inhibition of IL-8 ([1]; 1 µM): 40.8%
Inhibition of IL-6 ([1]; 5 µM): 66.5%
Inhibition of IL-8 ([1]; 5 µM): 56.7%
Inhibition of IL-6 ([1]; 10 µM): 60.7%
Inhibition of IL-8 ([1]; 10 µM): 44.0%
Inhibition of IL-6 ([1]; 20 µM): 71.4%
Inhibition of IL-8 ([1]; 20 µM): 65.0%
Inhibition of IL-6 ([2]; 0.1 µM): 90.7%
Inhibition of IL-8 ([2]; 0.1 µM): 23.2%
Inhibition of IL-6 ([2]; 1 µM): 83.9%
Inhibition of IL-8 ([2]; 1 µM): 36.8%
Inhibition of IL-6 ([2]; 5 µM): 94.2%
Inhibition of IL-8 ([2]; 5 µM): 53.4%
Inhibition of IL-6 ([2]; 10 µM): 84.5%
Inhibition of IL-8 ([2]; 10 µM): 53.5%
Inhibition of IL-6 ([2]; 20 µM): 100.0%
Inhibition of IL-8 ([2]; 20 µM): 36.1%
